Test results taken from US12655116B2, “Substituted isophthalic acid diamides” (Bayer Aktiengesellschaft, priority 2020, dated 2026).

Experiments:
[1] = tested on: DIGSA; assay: Pre-emergence herbicidal action against DIGSA; format: in vivo, Digitaria sanguinalis
Procedure, shortened: (§1)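 Greenhouse pots of sandy loam held seeds covered with soil, onto which the compound was applied before emergence. An aqueous suspension or emulsion of WP or EC was used at 600 to 800 l/ha with 0.2% wetting agent. Percent damage was judged visually at 3 weeks.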

[2] = tested on: AMARE; assay: Post-emergence herbicidal action against AMARE; format: in vivo, Amaranthus retroflexus; conditions: 20 g/ha, visual assessment about 3 weeks after treatment, 100% = plants have died, 0% = like control plants
Procedure, shortened: (§2)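 A WP or EC formulation diluted in water with 0.2% wetting agent was sprayed at 600 to 800 l/ha onto one-leaf-stage plants grown in sandy loam. About 3 weeks later, action was rated visually in percent, 100% being dead plants.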

[3] = tested on: MATIN; assay: Pre-emergence herbicidal action against MATIN; format: in vivo, Matricaria inodora
Procedure, shortened: as §1

[4] = tested on: ECHCG; assay: Pre-emergence herbicidal action against ECHCG; format: in vivo, Echinochloa crus-galli
Procedure, shortened: as §1

[5] = tested on: AMARE; assay: Pre-emergence herbicidal action against AMARE; format: in vivo, Amaranthus retroflexus
Procedure, shortened: as §1

[6] = tested on: ALOMY; assay: Pre-emergence herbicidal action against ALOMY; format: in vivo, Alopecurus myosuroides; conditions: for Pre-emergence action against ALOMY (herbicidal activity): 80 g/ha, scored visually after 3 weeks vs untreated controls (100% = plants have died, 0% = like control plants)
Procedure, shortened: as §1

[7] = tested on: PHBPU; assay: Pre-emergence herbicidal action against PHBPU; format: in vivo, Pharbitis purpurea
Text: Seeds of monocotyledonous and dicotyledonous weed plants and crop plants are laid out in sandy loam soil in wood-fiber pots and covered with soil. The compounds of the invention, formulated in the form of wettable powders (WP) or as emulsion concentrates (EC), are then applied to the surface of the covering soil in the form of an aqueous suspension or emulsion at a water application rate equivalent to 600 to 800 l/ha, with addition of 0.2% wetting agent. After the treatment, the pots are placed in a greenhouse and kept under good growth conditions for the trial plants. The damage to the test plants is scored visually after a test period of 3 weeks by comparison with untreated controls (herbicidal activity in percent (%): 100% activity=the plants have died, 0% activity=like control plants). […] The tables below illustrate, in an illustrative manner, the post-emergence herbicidal action of the compounds of the invention, the herbicidal activity being stated in percent.

[8] = tested on: SETVI; assay: Pre-emergence herbicidal action against SETVI; format: in vivo, Setaria viridis
Procedure, shortened: as §1

[9] = tested on: VIOTR; assay: Pre-emergence herbicidal action against VIOTR; format: in vivo, Viola tricolor
Procedure, shortened: as §1

[10] = tested on: ALOMY; assay: Post-emergence herbicidal action against ALOMY; format: in vivo, Alopecurus myosuroides; conditions: visual assessment about 3 weeks after treatment vs untreated controls
Procedure, shortened: as §2

[11] = tested on: ABUTH; assay: Post-emergence herbicidal action against ABUTH; format: in vivo, Abutilon theophrasti; conditions: visual assessment about 3 weeks after treatment vs untreated controls
Procedure, shortened: as §2

[12] = tested on: MATIN; assay: Post-emergence herbicidal action against MATIN; format: in vivo, Matricaria inodora
Procedure, shortened: as §2

[13] = tested on: ECHCG; assay: Post-emergence herbicidal action against ECHCG; format: in vivo, Echinochloa crus-galli
Procedure, shortened: as §2

[14] = tested on: VIOTR; assay: Post-emergence herbicidal action against VIOTR; format: in vivo, Viola tricolor
Procedure, shortened: as §2

[15] = tested on: SETVI; assay: Post-emergence herbicidal action against SETVI; format: in vivo, Setaria viridis; conditions: dosage 20 g/ha
Procedure, shortened: as §2

[16] = tested on: AVEFA; assay: Pre-emergence herbicidal action against AVEFA; format: in vivo, Avena fatua; conditions: 80 g/ha, pre-emergence
Procedure, shortened: as §1

[17] = tested on: ABUTH; assay: Pre-emergence herbicidal action against ABUTH; format: in vivo, Abutilon theophrasti; conditions: for Pre-emergence action against ABUTH (herbicidal activity): 80 g/ha, scored visually after 3 weeks vs untreated controls (100% = plants have died, 0% = like control plants); for Pre-emergence action against ABUTH (herbicidal activity in percent): dosage 20 g/ha, scored visually after 3 weeks vs untreated controls, 100% = plants have died, 0% = like control plants
Procedure, shortened: as §1

[18] = tested on: DIGSA; assay: Post-emergence herbicidal action against DIGSA; format: in vivo, Digitaria sanguinalis; conditions: for Post-emergence action against DIGSA: 20 g/ha; for Post-emergence action against DIGSA in %: 5 g/ha
Procedure, shortened: as §2

[19] = tested on: PHBPU; assay: Post-emergence herbicidal action against PHBPU; format: in vivo, Pharbitis purpurea
Procedure, shortened: as §2

[20] = tested on: VERPE; assay: Pre-emergence herbicidal action against VERPE; format: in vivo, Veronica persica
Procedure, shortened: as §1

[21] = 20 g/ha, scored visually after 3 weeks vs untreated controls, 100% = plants have died, 0% = like control plants
[22] = 80 g/ha, scored visually after 3 weeks vs untreated controls (100% = plants have died, 0% = like control plants)

| Structure (SMILES) | Pre-emergence action against DIGSA in % ([1]; dosage 20 g/ha) [%] | Pre-emergence action against DIGSA in % ([1]; dosage 80 g/ha) [%] | Post-emergence action at 20 g/ha against AMARE in % [2] [%] | Pre-emergence action against MATIN in % ([3]; dosage 80 g/ha) [%] | Pre-emergence action against ECHCG in % ([4]; 80 g/ha) [%] | Pre-emergence action against AMARE in % [5, 21] [%] | Pre-emergence action against AMARE in % [5, 22] [%] | Pre-emergence action against ALOMY (herbicidal activity) [6] [%] | Pre-emergence action against PHBPU in % ([7]; dosage 80 g/ha) [%] | Pre-emergence action against SETVI in % ([8]; dosage 80 g/ha) [%] | Pre-emergence action against VIOTR in % ([9]; dosage 20 g/ha) [%] | Pre-emergence action against VIOTR in % ([9]; dosage 80 g/ha) [%] | Pre-emergence action against MATIN in % ([3]; dosage 20 g/ha) [%] | Post-emergence action against ABUTH in % ([11]; dosage 5 g/ha) [%] | Post-emergence action against ABUTH in % ([11]; dosage 20 g/ha) [%] | Post-emergence action against ECHCG in % ([13]; dosage 20 g/ha) [%] | Pre-emergence action against ABUTH (herbicidal activity) [17] [%] | Pre-emergence action against ABUTH (herbicidal activity in percent) [17] [%] | Post-emergence action against DIGSA [18] [%] | Post-emergence action against PHBPU in % ([19]; dosage 20 g/ha) [%] | other results |
| --- | --- | --- | --- | --- | --- | --- | --- | --- | --- | --- | --- | --- | --- | --- | --- | --- | --- | --- | --- | --- | --- |
| Cn1nnnc1NC(=O)c1ccc(C(F)(F)F)c(C(=O)NCC2CCCO2)c1Cl (stereo not drawn) [Example 1-141] | 90 | 100 | 100 | 100 | 90 | 100 | 100 | 90 | 80 | 100 | 80 | 100 |  |  |  |  |  |  |  |  | Pre-emergence action against SETVI in % ([8]; dosage 20 g/ha): 90% |
| CCn1nnnc1NC(=O)c1ccc(Br)c(C(=O)NC(C)C)c1Cl [Example 2-185] |  |  | 100 | 100 | 90 | 100 | 100 | 90 | 100 | 100 | 80 | 100 | 100 | 90 | 100 | 100 | 100 | 100 |  |  | Post-emergence action against ALOMY in % ([10]; dosage 20 g/ha): 90%; Post-emergence action against MATIN in % ([12]; dosage 5 g/ha): 80%; Post-emergence action against MATIN in % ([12]; dosage 20 g/ha): 90%; Post-emergence action against VIOTR in % ([14]; 5 g/ha): 100%; Post-emergence action against VIOTR in % ([14]; 20 g/ha): 100%; Post-emergence action against SETVI in % [15]: 80%; Pre-emergence action against AVEFA in % [16]: 100% |
| COCCNC(=O)c1c(Br)ccc(C(=O)Nc2nnnn2C)c1Cl [Example 1-186] |  |  | 100 | 90 | 80 | 80 | 100 | 90 | 80 | 80 |  |  |  | 90 | 90 | 90 | 100 | 100 |  |  | Post-emergence action against ALOMY in % ([10]; dosage 5 g/ha): 80%; Post-emergence action against ALOMY in % ([10]; dosage 20 g/ha): 90%; Post-emergence action against SETVI in % [15]: 80% |
| CCn1nnnc1NC(=O)c1ccc(C(F)(F)F)c(C(=O)NC(C)C2CC2)c1Br (stereo not drawn) [Example 2-213] | 80 | 100 |  | 100 | 90 | 100 | 100 |  | 90 | 100 | 100 | 100 | 100 |  | 80 | 80 | 100 | 100 | 90 | 80 | Post-emergence action against MATIN in % ([12]; dosage 5 g/ha): 90%; Post-emergence action against MATIN in % ([12]; dosage 20 g/ha): 100%; Post-emergence action against ECHCG in % ([13]; dosage 5 g/ha): 80%; Pre-emergence action against PHBPU in % ([7]; dosage 20 g/ha): 80%; Post-emergence action against PHBPU in % ([19]; dosage 5 g/ha): 80%; Post-emergence action against VIOTR in % ([14]; 20 g/ha): 90%; Pre-emergence action against VERPE in % ([20]; dosage 80 g/ha): 90% |
| CCn1nnnc1NC(=O)c1ccc(C(F)F)c(C(=O)NCC2CCCO2)c1Cl (stereo not drawn) [Example 2-159] |  |  | 100 | 90 | 90 | 100 | 100 | 80 | 90 |  |  | 80 |  |  |  |  | 100 |  |  | 90 | Post-emergence action against PHBPU in % ([19]; dosage 5 g/ha): 80%; Pre-emergence action against VERPE in % ([20]; dosage 80 g/ha): 80% |
| Cc1nnc(NC(=O)c2ccc(C(F)(F)F)c(C(=O)NCC3CC3)c2C2CC2)o1 [Example 6-228] | 90 | 100 | 90 | 80 | 90 |  | 100 |  | 80 | 80 |  |  |  |  |  |  | 90 |  | 80 | 80 |  |
| CCn1nnnc1NC(=O)c1ccc(C(F)(F)F)c(C(=O)NCC2CC2)c1Br [Example 2-210] | 100 | 100 | 100 | 100 | 100 | 100 | 100 | 100 | 90 | 100 | 100 | 100 | 100 | 80 | 80 | 90 | 100 | 100 | 90 | 90 | Post-emergence action against ALOMY in % ([10]; dosage 20 g/ha): 90%; Pre-emergence action against ECHCG in % ([4]; 20 g/ha): 80%; Post-emergence action against DIGSA in % [18]: 80%; Post-emergence action against MATIN in % ([12]; dosage 20 g/ha): 90%; Pre-emergence action against PHBPU in % ([7]; dosage 20 g/ha): 80%; Post-emergence action against VIOTR in % ([14]; 20 g/ha): 90%; Post-emergence action against SETVI in % [15]: 80%; Pre-emergence action against AVEFA in % [16]: 90% |
| Cc1nnc(NC(=O)c2ccc(C(F)(F)F)c(C(=O)NC3CCC3)c2C)o1 [Example 6-256] | 90 | 100 | 90 | 90 | 100 | 90 | 100 | 90 | 80 | 100 | 90 | 90 |  | 80 | 90 | 90 | 100 |  | 90 | 90 | Pre-emergence action against ECHCG in % ([4]; 20 g/ha): 80%; Post-emergence action against DIGSA in % [18]: 80%; Pre-emergence action against ALOMY ([6]; 20 g/ha, scored visually after 3 weeks, 100% = plants have died, 0% = like control plants): 80%; Post-emergence action against ECHCG in % ([13]; dosage 5 g/ha): 90%; Pre-emergence action against VERPE in % ([20]; dosage 20 g/ha): 80%; Pre-emergence action against VERPE in % ([20]; dosage 80 g/ha): 80%; Pre-emergence action against SETVI in % ([8]; dosage 20 g/ha): 80%; Pre-emergence action against AVEFA in % [16]: 80% |
